According to patent US8501713B2, “Drug combinations for the treatment of duchenne muscular dystrophy” (Summit Corporation PLC, priority 2007, dated 2013):

System: Utrophin A promoter linked to a luciferase reporter gene
Test: Luciferase reporter assay (murine H2K cells)
Format: cell-based
Conditions: for activity at 10 µM: Mus musculus, H2K mdx, luciferase level relative to control, H2K/mdx/Utro A reporter cells, compound 10 μM final concentration, read-out: Activity; for Activity: luciferase reporter assay in murine H2K cells, classified relative to control
Method: 1. Luciferase Reporter Assay (Murine H2K Cells)
The cell line used for the screen is an immortalized mdx mouse H2K cell line that has been stably transfected with a plasmid containing […] fragment of the Utrophin A promoter including the first untranslated exon linked to a luciferase reporter gene. Under conditions of low temperature and interferon containing media, the cells remain as myoblasts. These are plated into 96 well plates and cultured in the presence of compound for three days. The level of luciferase is then determined by cell lysis and reading of the light output from the expressed luciferase gene utilising a plate luminometer.
H2K/mdx/Utro A reporter Cell Line Maintenance
The cells were grown at 33° C. in the presence of 10% CO2. To remove the myoblasts for platting, they were incubated with Trypsin EDTA until the monolayer started to detach.
The plates were then incubated at 33° C. in the presence of 10% CO2 for 24 hrs. Compounds were dosed by adding 10 μl of diluted compound to each well giving a final concentration of 10 μM. The plates were then incubated for a further 48 hrs. Cells were then lysed in situ following the manufacture's protocols (Promega Steady-Glo Luciferase Assay System (E2520). Then counted for 10 seconds using a plate luminometer (Victor1420).
Compounds for screening were stored at −20° C. as 10 mM stocks in 100% DMSO until required.
Biological activity as assessed using the luciferase reporter assay in murine H2K cells, and is classified as follows: […]

Compound	activity at 10 µM	Activity
CCN(CC)c1ccc(-c2nc3c(ccc4ccccc43)o2)cc1 [Example 146, N,N-diethyl-4-(naphtho[1,2-d]oxazol-2-yl)aniline]	201 to 300%	–
Cc1cc(-c2nc3cc(Cl)ccc3o2)ccc1[N+](=O)[O-] [Example 539]	–	+ (Up to 200% relative to control)
Cc1cc2nc(-c3ccc(F)cc3F)oc2cc1C [Example 247, 2-(2,4-difluorophenyl)-5,6-dimethylbenzo[d]oxazole]	201 to 300%	–
Clc1ccc2nc(-c3ccncc3)oc2c1 [Example 331, 6-chloro-2-(pyridin-4-yl)benzo[d]oxazole]	< 200%	–
Cc1ccc2nc(-c3ccc(NC(=O)C(C)C)cc3)oc2c1 [Example 564]	–	+ (Up to 200% relative to control)
CNC(=O)Nc1ccc2nc(C)oc2c1 [Example 467]	–	+ (Up to 200% relative to control)
O=C(Nc1nc2ccccc2[nH]1)c1cccc(Cl)c1 [Example 679]	–	++ (Between 201% and 300% relative to control)
O=[N+]([O-])c1ccc2oc(Cc3ccccc3)nc2c1 [Example 214, 2-benzyl-5-nitrobenzo[d]oxazole]	< 200%	–
Cc1ccc(-c2nc3cc(NS(=O)(=O)C(C)C)ccc3o2)cc1 [Example 259, N-(2-p-tolylbenzo[d]oxazol-5-yl)propane-2-sulfonamide]	< 200%	–
COc1ccc(-c2nc3cc([N+](=O)[O-])ccc3[nH]2)cc1 [Example 586]	–	++ (Between 201% and 300% relative to control)
O=C(Nc1ccc2c(c1)OCO2)c1sc2ccccc2c1Cl [Example 618]	–	++++ (Above 401% relative to control)
O=C(Nc1ccc2oc(-c3ccc(Cl)c(Cl)c3)nc2c1)C1CC1 [Example 351, N-(2-(3,4-dichlorophenyl)benzo[d]oxazol-5-yl)cyclopropanecarboxamide]	> 401%	–
Cc1ccc2nc(-c3ccc(C(F)(F)F)cc3)oc2c1 [Example 611]	–	+++ (Between 301% and 400% relative to control)
O=[N+]([O-])c1ccc2oc(C3CCCCC3)nc2c1 [Example 163, 2-cyclohexyl-5-nitrobenzo[d]oxazole]	< 200%	–
CC(C)C(=O)Nc1ccc2oc(-c3cccc(Cl)c3F)nc2c1 [Example 342, N-(2-(3-chloro-2-fluorophenyl)benzo[d]oxazol-5-yl)isobutyramide]	> 401%	–
COc1ccc(-c2ccc3oc(-c4ccc(Cl)cc4)nc3c2)cn1 [Example 305, 2-(4-chlorophenyl)-5-(6-methoxypyridin-3-yl)benzo[d]oxazole]	201 to 300%	–
CCCC(=O)Nc1ccc2[nH]c(-c3ccc(C)cc3)nc2c1 [Example 166, N-(2-p-tolyl-1H-benzo[d]imidazol-5-yl)butyramide]	< 200%	–
Nc1ccc2oc(-c3ccc4cc(Br)ccc4c3)nc2c1 [Example 405, 2-(6-bromonaphthalen-2-yl)benzo[d]oxazol-5-amine]	< 200%	–
Nc1ccc(-c2ccc3oc(-c4ccc(Cl)cc4)nc3c2)cn1 [Example 338, 5-(2-(4-chlorophenyl)benzo[d]oxazol-5-yl)pyridin-2-amine]	> 401%	–

Compound	activity at 10 µM	Activity
Oc1ccc2nc(-c3ccc(Cl)cc3)oc2c1 [Example 579]	–	++++ (Above 401% relative to control)
COc1ccccc1C(=O)Nc1ccc2oc(-c3cccnc3)nc2c1 [Example 43, 2-methoxy-N-(2-(pyridin-3-yl)benzo[d]oxazol-5-yl)benzamide]	< 200%	–
CC(C)C(=O)Nc1ccc2oc(-c3cccc(C(F)(F)F)c3)nc2c1 [Example 203, N-(2-(3-(trifluoromethyl)phenyl)benzo[d]oxazol-5-yl)isobutyramide]	< 200%	–
CCS(=O)(=O)c1ccc2oc(-c3ccc(Cl)c(Cl)c3)nc2c1 [Example 301, 2-(3,4-diChlorophenyl)-5-(ethylsulfonyl)benzo[d]oxazole]	201 to 300%	–
CC(=O)Nc1ccccc1-c1ccc2oc(-c3ccc(Cl)cc3)nc2c1 [Example 294, N-(2-(2-(4-chlorophenyl)benzo[d]oxazol-5-yl)phenyl)acetamide]	< 200%	–
CCCCNc1ccc2oc(-c3ccccc3)nc2c1 [Example 167, N-butyl-2-phenylbenzo[d]oxazol-5-amine]	> 401%	–
COc1ccc(-c2nc3cc(NC(C)=O)ccc3o2)cc1Cl [Example 519]	–	++ (Between 201% and 300% relative to control)
CC(C)C(=O)Nc1ccc2oc(-c3ccccc3)cc2c1 [Example 396, N-(2-phenylbenzofuran-5-yl)isobutyramide]	> 401%	–
COc1ccc(-c2nc3cc(NC(=O)C(C)C)ccc3o2)cc1 [Example 139, N-(2-(4-methoxyphenyl)benzo[d]oxazol-5-yl)isobutyramide]	201 to 300%	–
CCS(=O)(=O)c1ccc2oc(-c3ccc(Cl)cn3)nc2c1 [Example 393, 2-(5-chloropyridin-2-yl)-5-(ethylsulfonyl)benzo[d]oxazole]	201 to 300%	–
Nc1ccc2nc(-c3ccc(Cl)c(Cl)c3)oc2c1 [Example 369, 2-(3,4-dichlorophenyl)benzo[d]oxazol-6-amine]	> 401%	–
Cn1c(-c2ccc([N+](=O)[O-])cc2)nc2ccccc21 [Example 472]	–	+ (Up to 200% relative to control)
O=C(c1ccccc1)c1ccc2nc(-c3ccccc3)[nH]c2c1 [Example 5, phenyl(2-phenyl-1H-benzo[d]imidazol-6-yl)methanone]	< 200%	–
Nc1ccc2oc(N3CCOCC3)nc2c1 [Example 360, 2-morpholinobenzo[d]oxazol-5-amine]	< 200%	–
O=C(Nc1ccc2oc(-c3cccnc3)nc2c1)c1ccc(F)cc1 [Example 48, 4-fluoro-N-(2-(pyridin-3-yl)benzo[d]oxazol-5-yl)benzamide]	< 200%	–
CCOCC(=O)Nc1ccc(-c2nc3ccc(C)cc3s2)cc1 [Example 657]	–	+++ (Between 301% and 400% relative to control)
Cc1ccc2nc(-c3cccc(NC(=O)c4ccco4)c3)[nH]c2c1 [Example 538]	–	+ (Up to 200% relative to control)
CCCC(=O)Nc1ccc2oc(-c3ccccc3Cl)nc2c1 [Example 229, N-(2-(2-chlorophenyl)benzo[d]oxazol-5-yl)butyramide]	301 to 400%	–
CCOc1ccc2nc(NC(=O)c3ccccc3)sc2c1 [Example 555]	–	+ (Up to 200% relative to control)

Compound	activity at 10 µM	Activity
Cc1ccc2oc(-c3ccc4ccccc4c3)nc2c1 [Example 458, 5-Methyl-2-(naphthalen-2-yl)benzo[d]oxazole]	> 401%	–
Cn1c(-c2ccc(N)cc2)nc2cc(N)ccc21 [Example 490]	–	+ (Up to 200% relative to control)
Nc1ccc2[nH]c(-c3ccc(Cl)cc3)nc2c1 [Example 560]	–	+++ (Between 301% and 400% relative to control)
O=C(Nc1ccc2oc(-c3cccnc3)nc2c1)c1ccc(C(F)(F)F)cc1 [Example 46, N-(2-(pyridin-3-yl)benzo[d]oxazol-5-yl)-4-(trifluoromethyl)benzamide]	< 200%	–
Nc1ccc2sc(-c3ccc(Cl)cc3)nc2c1 [Example 276, 2-(4-chlorophenyl)benzo[d]thiazol-5-amine]	> 401%	–
Cc1ccc(-c2nc3cc(C)c(C)cc3o2)cc1 [Example 215, 5,6-dimethyl-2-p-tolylbenzo[d]oxazole]	> 401%	–
CC(C)C(=O)Nc1ccc2oc(-c3ccc(Cl)cc3)nc2c1 [Example 101, N-(2-(4-chlorophenyl)benzo[d]oxazol-5-yl)isobutyramide]	> 401%	–
Clc1ccc(OCc2nc3ccccc3n2Cc2ccccc2Cl)c(Cl)c1 [Example 465]	–	+ (Up to 200% relative to control)
Cc1ccc(-c2nc3ccccc3o2)cc1 [Example 173, 2-p-tolylbenzo[d]oxazole]	301 to 400%	–
O=[N+]([O-])c1ccc2oc(SCc3ccc(Cl)cc3)nc2c1 [Example 379, 2-(4-chlorobenzylthio)-5-nitrobenzo[d]oxazole]	< 200%	–
Cc1ccc(-c2nc3c(N)cccc3o2)cc1 [Example 234, 2-p-tolylbenzo[d]oxazol-4-amine]	301 to 400%	–
CC(=O)c1c(C)nc(Nc2nc3ccccc3o2)nc1C [Example 681]	–	++ (Between 201% and 300% relative to control)
Fc1ccccc1-c1nc2ccccc2[nH]1 [Example 507]	–	++ (Between 201% and 300% relative to control)
NC(=O)c1ccc2oc(-c3ccc(Cl)cc3)nc2c1 [Example 264, 2-(4-chlorophenyl)benzo[d]oxazole-5-carboxamide]	> 401%	–
Cc1ccc2oc(-c3ccc(Cl)c(NC(=O)c4ccco4)c3)nc2c1 [Example 677]	–	++ (Between 201% and 300% relative to control)
CC(C)C(=O)Nc1ccc2oc(-c3cccnc3)nc2c1 [Example 56, N-(2-(pyridin-3-yl)benzo[d]oxazol-5-yl)isobutyramide]	201 to 300%	–
Cc1ccc(-c2nc3cc(N)ccc3o2)cc1C [Example 603]	–	+++ (Between 301% and 400% relative to control)
Nc1ccc2oc(-c3ccc(O)cc3)nc2c1 [Example 496]	–	++ (Between 201% and 300% relative to control)
